Series [1] concerns the target T1, Type-1 angiotensin II receptor (Homo sapiens) (UniProt P30556).
T1 sequence (whole entry): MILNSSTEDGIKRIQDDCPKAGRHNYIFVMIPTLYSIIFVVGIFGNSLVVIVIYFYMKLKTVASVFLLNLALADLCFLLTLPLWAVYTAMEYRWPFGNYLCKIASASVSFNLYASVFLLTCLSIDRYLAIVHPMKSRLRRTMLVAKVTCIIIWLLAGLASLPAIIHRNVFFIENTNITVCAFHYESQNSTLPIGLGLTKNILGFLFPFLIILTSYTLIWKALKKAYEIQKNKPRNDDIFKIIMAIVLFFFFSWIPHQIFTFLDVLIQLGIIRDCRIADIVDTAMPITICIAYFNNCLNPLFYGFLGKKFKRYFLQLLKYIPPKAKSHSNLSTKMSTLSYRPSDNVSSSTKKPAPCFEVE
As to the kind of experiment: Agonist activity at Flag-tagged AT1R (unknown origin) extracted from HEK293T cell membrane co expressing YPET-ARRB1 assessed as beta-arrestin 1 recruitment using NanoGlo as substrate preincubated for 30 mins followed by substrate addition for 10 mins by BRET assay. Format: functional, cell membranes. The settings on record: HEK293. (Recruitment of arrestin is a read-out of receptor activation apart from second messengers.)

The target in series [2] is T1, Type-1 angiotensin II receptor (Homo sapiens). Nature of the series: Agonist activity at Flag-tagged AT1R (unknown origin) extracted from HEK293 cell membrane co expressing YPET-ARRB2 assessed as beta-arrestin 2 recruitment using NanoGlo as substrate preincubated for 30 mins followed by substrate addition for 10 mins by BRET assay. Format: functional, cell membranes.

Series [3] shares this target. As to the kind of experiment: Induction of human NLuc-tagged AT1R (unknown origin) internalization in HEK293 cells co expressing venus-MP using NanoGlo as substrate preincubated for 30 mins followed by substrate addition for 10 mins by BRET assay. Type of series: functional. (Bioluminescence resonance energy transfer reports proximity on the nanometre scale.)
For series [4], the system named is Cerebral artery. As to the kind of experiment: Vaso-constriction activity in male wistar rat middle cerebral artery assessed as arterial contraction. Format: functional, tissue-based.
Series [5] in a line: Fluorescence property of compound in HEPES buffer assessed as quantum yield. Type of series: physicochemical.
Series [6] deals with Cerebral artery. Nature of the series: Vaso-constriction activity in male wistar rat middle cerebral artery assessed as arterial contraction at 1 uM in presence of losartan. Format: functional, tissue-based.
In series [7] the test system is Cerebral artery. As to the kind of experiment: Vaso-constriction activity in male wistar rat middle cerebral artery assessed as arterial contraction at 1 uM. Type of series: functional, tissue-based.
The subject of series [8] is Cerebral artery. Nature of the series: Vaso-constriction activity in male wistar rat middle cerebral artery assessed as arterial contraction at 10 nM. Type of series: functional, tissue-based.

Calls of active or inactive are those of the source. The calls are words filed in the database; no cut-off is given here. Square brackets hold non-standard residues; d marks the D form. Peptide text beside a SMILES is read from it. * marks the point of attachment. ξ: configuration not given here. X1 = C[N+]1=C(/C=C/C=C2\N(CCCCCC(=O)*)c3ccccc3C2(C)C)C(C)(C)c2ccccc21; PEG2 = NCCOCCOCCC(=O)O; ξD = NC(CC(=O)O)C(=O)O

Regarding H-YFHPDVIR-OH, the result (in series [1]; in series [2]; in series [3]; in the series with Cerebral artery [4]) was inactive.

As for `CC[C@H](C)[C@H](NC(=O)[C@@H](NC(=O)C(CC(=O)O)NC(=O)[C@@H]1CCCN1C(=O)[C@H](Cc1c[nH]cn1)NC(=O)[C@H](Cc1ccccc1)NC(=O)[C@H](Cc1ccc(O)cc1)NC(=O)CCOCCOCCNC(=O)CCCCCN1/C(=C\C=C\C2=[N+](C)c3ccccc3C2(C)C)C(C)(C)c2ccccc21)C(C)C)C(=O)N[C@@H](CCCNC(=N)N)C(=O)O` (stereo not given in full) ({X1-PEG2}-YFHP[ξD]VIR-OH), the Activity in series [5] came out at 0.064. Besides, the result in series [1], in series [2] and in series [3] was inactive. In addition, the result in the series with Cerebral artery [6] was Active.

For the compound `CC[C@H](C)[C@H](NC(=O)[C@@H](NC(=O)[C@H](CC(=O)O)NC(=O)[C@@H]1CCCN1C(=O)[C@H](Cc1c[nH]cn1)NC(=O)[C@H](Cc1ccccc1)NC(=O)[C@H](Cc1ccc(O)cc1)NC(=O)CCCCCN1/C(=C\C=C\C2=[N+](C)c3ccccc3C2(C)C)C(C)(C)c2ccccc21)C(C)C)C(=O)N[C@@H](CCCNC(=N)N)C(=O)O` (X1-YFHPDVIR-OH), the Activity in series [5] worked out at 0.101. Besides, the result in series [1], in series [2] and in series [3] was inactive. Further, the result in the series with Cerebral artery [6] was Active.

With `CC[C@H](C)[C@H](NC(=O)[C@H](Cc1ccc(O)cc1)NC(=O)[C@@H](NC(=O)[C@H](CCCNC(=N)N)NC(=O)[C@H](CC(=O)O)NC(=O)CCCCCN1/C(=C\C=C\C2=[N+](C)c3ccccc3C2(C)C)C(C)(C)c2ccccc21)C(C)C)C(=O)N[C@@H](Cc1c[nH]cn1)C(=O)N1CCC[C@H]1C(=O)N[C@@H](Cc1ccccc1)C(=O)O`, in series [5], the Activity is 0.08. The outcome in the series with Cerebral artery [7] and with Cerebral artery [8] was Active.

Regarding `CC[C@H](C)[C@H](NC(=O)[C@H](Cc1ccc(O)cc1)NC(=O)[C@@H](NC(=O)[C@H](CCCNC(=N)N)NC(=O)[C@H](CC(=O)O)NC(=O)CCOCCOCCNC(=O)CCCCCN1/C(=C\C=C\C2=[N+](C)c3ccccc3C2(C)C)C(C)(C)c2ccccc21)C(C)C)C(=O)N[C@@H](Cc1c[nH]cn1)C(=O)N1CCC[C@H]1C(=O)N[C@@H](Cc1ccccc1)C(=O)O`, in series [5], the Activity was found to be 0.068. The result with Cerebral artery [7] and in the series with Cerebral artery [8] was Active.

The values are drawn from ChEMBL document CHEMBL6078647 (J Med Chem, 2024).
